Data on 20 molecules can be found in patent US20250136607A1 (REGOR PHARMACEUTICALS, INC., priority 2021, published 2025).

The term IC50 denotes the point on the concentration scale where inhibition reaches its midpoint.

The target of the assay is Protein arginine deiminase 4 (PAD4) (Homo sapiens, UniProt Q9UM07). The assay can be described thus: PAD4 ammonia release assay. The assay is classed as biochemical. The protocol: 1) Compound preparation: The compounds were diluted to 80× final concentrations. 2) The compounds were transferred to a 384-well assay plate by Tecan. DMSO: 1.25%. 3) Preparation of 1×Assay buffer: 100 mM HEPES, PH=8.0, 2 mM CaCl2, 50 mM NaCl, 0.1 mM TCEP, 0.6 mg/ml BSA. 4) 2× enzyme working solution (PAD4:20 nM) was prepared with assay buffer, and 10 μL of the obtained working solution were added to the 384-well assay plates. 5) The plate was centrifuged at 1000 rpm for 1 min. 6) After the centrifuge, the plate was incubated at RT for 15 min. 7) 2×BAEE substrate mix (600 μM) was prepared with assay buffer and 10 μL of the obtained substrate mix were added to each well. 8) The plate was centrifuged at 1000 rpm for 1 min and then incubated at RT for 60 min. 9) 1.5× detection mix (DTT:4 mM, OPA:3 mM, EDTA: 30 mM) was prepared, and 10 μL of the mix were added to the plate. 10) The plate was centrifuged at 1000 rpm for 1 min and then incubated at RT for 120 min. 11) The 384-well plates were placed into the Envision (PerkinElmer) and the assay data were collected.
The percent (%) inhibition at each concentration of compound was calculated based on and relative to the signal in the HPE (50 μM ref. compound) and ZPE (1.25% DMSO) wells included within each assay plate. The HPE worked as 100% inhibition, and the ZPE worked as 0% inhibition. The concentrations and % inhibition values for tested compounds were plotted and the concentration of compound required for 50% inhibition (IC50) was determined with a Four-parameter logistic dose response equation. The endpoint value (IC50) for the reference compound was evaluated in each experiment as a quality control measure. If the endpoint value is within 3-fold of the expected value, then the experiment quality is deemed as acceptable. The results are provided in Table 1 below. ≤0.1 μM=“++++”; >0.1 and ≤0.5 μM=“+++”; >0.5 and ≤5.0 μM=“++”; >5.0 μM=“+”. “−”=not available.

Where [1] appears, read: PAD4 ammonia release assay, BAEE substrate, 60 min at RT, read-out: Average IC50 Abs.

Where two headings read alike, the source gives them in different places. Some results are limits rather than exact numbers.

Protein arginine deiminase 4 (PAD4), sequence (Q9UM07 whole entry): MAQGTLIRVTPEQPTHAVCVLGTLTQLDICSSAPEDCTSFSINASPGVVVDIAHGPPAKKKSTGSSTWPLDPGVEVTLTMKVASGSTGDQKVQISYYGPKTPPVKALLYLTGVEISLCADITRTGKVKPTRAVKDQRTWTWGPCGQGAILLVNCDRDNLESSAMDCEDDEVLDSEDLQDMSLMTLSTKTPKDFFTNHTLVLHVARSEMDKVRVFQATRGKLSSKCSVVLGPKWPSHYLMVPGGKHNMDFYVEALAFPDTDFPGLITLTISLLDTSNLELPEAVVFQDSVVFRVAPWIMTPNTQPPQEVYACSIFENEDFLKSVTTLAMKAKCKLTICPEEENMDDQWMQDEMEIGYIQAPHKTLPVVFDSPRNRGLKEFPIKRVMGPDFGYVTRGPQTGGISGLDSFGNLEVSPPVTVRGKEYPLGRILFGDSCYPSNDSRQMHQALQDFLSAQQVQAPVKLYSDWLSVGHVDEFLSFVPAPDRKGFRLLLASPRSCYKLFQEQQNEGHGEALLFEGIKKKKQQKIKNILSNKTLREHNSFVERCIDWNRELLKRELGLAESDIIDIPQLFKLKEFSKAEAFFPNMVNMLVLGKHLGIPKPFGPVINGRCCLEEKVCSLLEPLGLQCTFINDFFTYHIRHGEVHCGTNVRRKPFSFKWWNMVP

Consider `C#CCn1c(-c2cc3cccc4c3n2C(CC)CN4CCCO)nc2cc(C(=O)N3C[C@H]4CC[C@@H]3[C@@H]4N)cc(OC)c21` (stereo partly drawn) [Example 90, ((1R,4R,7R)-7-amino-2-azabicyclo[2.2.1]heptan-2-yl)(2-(3-ethyl-1-(3-hydroxypropyl)-2,3-dihydro-1H-pyrrolo[1,2,3-de]quinoxalin-5-yl)-7-methoxy-1-(prop-2-yn-1-yl)-1H-benzo[d]imidazol-5-yl)methanone], for which the IC50 under setting [1] lay in the range of 100 to 500 nM. For the molecule `CCn1c(-c2cc3cccc4c3n2C(C)CN4CCCO)nc2cc(C(=O)N3C[C@H]4CC[C@@H]3[C@@H]4NC(=O)OC(C)(C)C)cc(OC)c21` (stereo partly drawn) [Example 67, tert-butyl ((1R,4R,7R)-2-(1-ethyl-2-(1-(3-hydroxypropyl)-3-methyl-2,3-dihydro-1H-pyrrolo[1,2,3-de]quinoxalin-5-yl)-7-methoxy-1H-benzo[d]imidazole-5-carbonyl)-2-azabicyclo[2.2.1]heptan-7-yl)carbamate], under setting [1], the IC50 was over 5000 nM. On the same count and under the same terms, the result for `CCn1cc(Cn2c(-c3cc4cccc5c4n3CCN5CCO)nc3cc(C(=O)N4C[C@H](N)C[C@@H](F)C4)cc(F)c32)cn1` [Example 39, ((3R,5R)-3-amino-5-fluoropiperidin-1-yl)(1-((1-ethyl-1H-pyrazol-4-yl)methyl)-7-fluoro-2-(1-(2-hydroxyethyl)-2,3-dihydro-1H-pyrrolo[1,2,3-de]quinoxalin-5-yl)-1H-benzo[d]imidazol-5-yl)methanone] reads 100 to 500 nM. In the case of `COc1cc(C(=O)N2CCC[C@@H](N)C2)cc2nc(-c3cc4cccc5c4n3C(C)CN5)n(C)c12` (stereo partly drawn) [Example 65, ((R)-3-aminopiperidin-1-yl)(7-methoxy-1-methyl-2-(3-methyl-2,3-dihydro-1H-pyrrolo[1,2,3-de]quinoxalin-5-yl)-1H-benzo[d]imidazol-5-yl)methanone], the IC50 runs as follows: (PAD4 activity comparison, read-out: PAD4 Ammonia assay IC50) 2600 nM; under setting [1], 500 to 5000 nM. As to `CCC1CNc2c(C#N)ccc3cc(-c4nc5cc(C(=O)N6C[C@H]7CC[C@@H]6[C@@H]7N)cc(F)c5n4C)n1c23` (stereo partly drawn) [Example 128, 5-(5-((1R,4R,7R)-7-amino-2-azabicyclo[2.2.1]heptane-2-carbonyl)-7-fluoro-1-methyl-1H-benzo[d]imidazol-2-yl)-3-ethyl-2,3-dihydro-1H-pyrrolo[1,2,3-de]quinoxaline-9-carbonitrile], the IC50 under setting [1] lay within 100 to 500 nM.

Take `CCC1C(=O)Nc2cccc3cc(-c4nc5cc(C(=O)N6C[C@H]7CC[C@@H]6[C@@H]7N)cnn5c4C)n1c23` (stereo partly drawn) [Example 137, 2-[7-[(1R,4R,7R)-7-amino-2-azabicyclo[2.2.1]heptane-2-carbonyl]-3-methyl-imidazo[1,2-b]pyridazin-2-yl]-11-ethyl-1,9-diazatricyclo[6.3.1.04,12]dodeca-2,4,6,8(12)-tetraen-10-one]: the IC50 under setting [1] lay within 500 to 5000 nM.

For `CN1CCc2c(ccc3cc(-c4nc5cc(C(=O)N6C[C@H]7CC[C@@H]6[C@@H]7N)cc(F)c5n4C)n(CC4CC4)c23)C1` [Example 152, ((1R,4R,7R)-7-amino-2-azabicyclo[2.2.1]heptan-2-yl)(2-(1-(cyclopropylmethyl)-7-methyl-6,7,8,9-tetrahydro-1H-pyrrolo[2,3-f]isoquinolin-2-yl)-7-fluoro-1-methyl-1H-benzo[d]imidazol-5-yl)methanone], the IC50 under setting [1] is 100 to 500 nM.

Regarding `Cn1c(-c2cc3ccc4cc[nH]c4c3n2CC2CCC2)nc2cc(C(=O)N3C[C@H]4CC[C@@H]3[C@@H]4N)cc(F)c21` [Example 165, ((1R,4R,7R)-7-amino-2-azabicyclo[2.2.1]heptan-2-yl)(2-(1-(cyclobutylmethyl)-1,8-dihydropyrrolo[3,2-g]indol-2-yl)-7-fluoro-1-methyl-1H-benzo[d]imidazol-5-yl)methanone], the half-maximal inhibitory concentration (IC50) under setting [1] is at most 100 nM. For the molecule `Cn1c(-c2cc3ccc4c(c3n2CC2CC2)CCN(C2CC2)C4)nc2cc(C(=O)N3C[C@H]4CC[C@@H]3[C@@H]4N)cc(F)c21` [Example 155, ((1R,4R,7R)-7-amino-2-azabicyclo[2.2.1]heptan-2-yl)(2-(7-cyclopropyl-1-(cyclopropylmethyl)-6,7,8,9-tetrahydro-1H-pyrrolo[2,3-f]isoquinolin-2-yl)-7-fluoro-1-methyl-1H-benzo[d]imidazol-5-yl)methanone], the IC50 under setting [1] was 100 to 500 nM.

With `Cc1nnc2c3c(ccn12)cc(-c1nc2cc(C(=O)N4C[C@H]5CC[C@@H]4[C@@H]5N)cc(F)c2n1C)n3CC1CC1` [Example 159, [(1R,4R,7R)-7-amino-2-azabicyclo[2.2.1]heptan-2-yl]-[2-[12-(cyclopropylmethyl)-5-methyl-3,4,6,12-tetrazatricyclo[7.3.0.02,6]dodeca-1(9), 2,4,7,10-pentaen-11-yl]-7-fluoro-1-methyl-benzimidazol-5-yl]methanone], the IC50 under setting [1] lay in the range of 500 to 5000 nM. Turning to `COc1cc(C(=O)N2C[C@H](N)C[C@@H](F)C2)cc2nc(-c3cc4cccc5c4n3CCN5CCCO)n(OC)c12` [Example 63, ((3R,5R)-3-amino-5-fluoropiperidin-1-yl)(2-(1-(3-hydroxypropyl)-2,3-dihydro-1H-pyrrolo[1,2,3-de]quinoxalin-5-yl)-1,7-dimethoxy-1H-benzo[d]imidazol-5-yl)methanone], the IC50 under setting [1] was over 5000 nM. Same read-out and setting: the result for `COc1cc(C(=O)N2CC(F)(F)C3(CNC3)C2)cc2nc(-c3cc4cccc5c4n3CCN5CCCO)n(CC3CC3)c12` [Example 57, (1-(cyclopropylmethyl)-2-(1-(3-hydroxypropyl)-2,3-dihydro-1H-pyrrolo[1,2,3-de]quinoxalin-5-yl)-7-methoxy-1H-benzo[d]imidazol-5-yl)(8,8-difluoro-2,6-diazaspiro[3.4]octan-6-yl)methanone] reads over 5000 nM; that for `COc1cc(C(=O)N2C[C@H](N)C[C@@H](F)C2)cc2nc(-c3cc4cccc5c4n3CCN5CCCO)n(CC(F)F)c12` [Example 51, ((3R,5R)-3-amino-5-fluoropiperidin-1-yl)(1-(2,2-difluoroethyl)-2-(1-(3-hydroxypropyl)-2,3-dihydro-1H-pyrrolo[1,2,3-de]quinoxalin-5-yl)-7-methoxy-1H-benzo[d]imidazol-5-yl)methanone], 100 to 500 nM. Still for that read-out and setting: then `CC[C@@H]1CNc2cccc3cc(-c4nc5cc(C(=O)N6C[C@H]7CC[C@@H]6[C@@H]7N)cc(F)c5n4C)n1c23` [Example 73, ((1R,4R,7R)-7-amino-2-azabicyclo[2.2.1]heptan-2-yl)(2-((R)-3-ethyl-2,3-dihydro-1H-pyrrolo[1,2,3-de]quinoxalin-5-yl)-7-fluoro-1-methyl-1H-benzo[d]imidazol-5-yl)methanone], with over 5000 nM. On the same count and under the same terms, then `COc1cc(C(=O)N2CCC[C@@H](N)C2)cc2nc(-c3cc4cccc5c4n3CCN5C(=O)c3ccccc3)n(C)c12` [Example 31, (R)-(3-aminopiperidin-1-yl)(2-(1-benzoyl-2,3-dihydro-1H-pyrrolo[1,2,3-de]quinoxalin-5-yl)-7-methoxy-1-methyl-1H-benzo[d]imidazol-5-yl)methanone], with over 5000 nM; and `CC(C)N1CCc2c(ccc3cc(-c4nc5cc(C(=O)N6C[C@H]7CC[C@@H]6[C@@H]7N)cc(F)c5n4C)n(CC4CC4)c23)C1` [Example 154, ((1R,4R,7R)-7-amino-2-azabicyclo[2.2.1]heptan-2-yl)(2-(1-(cyclopropylmethyl)-7-isopropyl-6,7,8,9-tetrahydro-1H-pyrrolo[2,3-f]isoquinolin-2-yl)-7-fluoro-1-methyl-1H-benzo[d]imidazol-5-yl)methanone], with 500 to 5000 nM. For `CCC1CNc2nccc3cc(-c4nc5cc(C(=O)N6C[C@H]7CC[C@@H]6[C@@H]7N)cc(F)c5n4C)n1c23` (stereo partly drawn) [Example 135, ((1R,4R,7R)-7-amino-2-azabicyclo[2.2.1]heptan-2-yl)(2-(3-ethyl-4,5-dihydro-3H-2a, 5,6-triazaacenaphthylen-2-yl)-7-fluoro-1-methyl-1H-benzo[d]imidazol-5-yl)methanone], under setting [1], the IC50 is over 5000 nM.

For `Cn1c(-c2cc3ccc(C#N)c4c3n2[C@H](C2CC2)CN4)nc2cc(C(=O)N3C[C@H]4CC[C@@H]3[C@@H]4N)cc(F)c21` (single isomer, unassigned) [Example 116], the IC50 under setting [1] lay within 500 to 5000 nM.

As for `COCCCN1CCn2c(-c3nc4cc(C(=O)N5CCC[C@@H](N)C5)cc(OC)c4n3C)cc3cccc1c32` [Example 21, (R)-(3-aminopiperidin-1-yl)(7-methoxy-2-(1-(3-methoxypropyl)-2,3-dihydro-1H-pyrrolo[1,2,3-de]quinoxalin-5-yl)-1-methyl-1H-benzo[d]imidazol-5-yl)methanone], the IC50 under setting [1] lay in the range of 500 to 5000 nM. Still for that read-out and setting: then `Cn1c(-c2cc3ccn4ccnc4c3n2CC2CC2)nc2cc(C(=O)N3C[C@H]4CC[C@@H]3[C@@H]4N)cc(F)c21` [Example 150, ((1R,4R,7R)-7-amino-2-azabicyclo[2.2.1]heptan-2-yl)(2-(9-(cyclopropylmethyl)-9H-imidazo[1,2-a]pyrrolo[2,3-c]pyridin-8-yl)-7-fluoro-1-methyl-1H-benzo[d]imidazol-5-yl)methanone], with 100 to 500 nM.
